The subject of one data set is obese female Zucker rats. In words: Daily oral gavage in obese female Zucker rats: serum nonHDL cholesterol, HDL cholesterol, triglycerides, glycemic control indicators, body weight. It is filed as in vivo, rat (Zucker fatty Crl:(Zuc)-faBR). The following applies: Rattus norvegicus, 100 mg/kg daily oral gavage. On the procedure:
Ten- to twelve-week old (400-500 grams) female Zucker fatty rats Crl: (Zuc)-faBR were obtained from Charles River Laboratories. Animals were acclimated to the laboratory environment for seven days. During the acclimation and study period, animals were housed by group in shoebox polycarbonate cages on Cellu-Dri bedding. The temperature and humidity in the animals' quarters (68-78° F.; 30-75% RH) were monitored and the airflow in the room was sufficient to provide several exchanges per hour with 100% fresh filtered air. An automatic timing device provided an alternating 12-hour cycle of light and dark. Rats received pelleted Purina Laboratory Rodent Chow® (5001) prior to and during the drug intervention period except for a 6-hour phase prior to blood sampling. Fresh water was supplied ad libitum via an automatic watering system. Compounds were dissolved, suspended by mixing in a dosing vehicle consisting of 1.5% carboxymethylcellulose/0.2% Tween 20 or 20% ethanol and 80% polyethylene glycol-200 [v/v]. Dose volume of vehicle or vehicle plus each compound was set at 0.25% of body weight in order to deliver the appropriate dose. Doses were administered daily by oral gavage, approximately between 8-10 AM. Regarding blood sampling, animals were fasted for 6 hours prior to all blood collections. Prior to and after 7 days of dosing, a 1.0- to 2.0-mL sample of blood was collected by administering O2/CO2 anesthesia and bleeding from the orbital venous plexus. Following 14 days of dosing, blood was collected by cardiac puncture after euthanasia with CO2. All blood samples were processed for separation of serum and stored at −80° C. until analysis. Commercially available kits were used to determine serum triglycerides (Roche Diagnostic Corporation, Kit No. 148899 or Boehringer Mannheim, Kit No. 1488872), total cholesterol (Roche Diagnostic Corporation, Kit No. 450061), non-esterified fatty acids (Wako Chemicals, Kit No. 994-75409) and β-hydroxybutyrate (Wako Chemicals, Kit No. 417-73501 or Sigma Kit. No. 310-0) on a Hitachi 912 Automatic Analyzer (Roche Diagnostic Corporation). In some instances, an in-house cholesterol reagent was used to determine total serum cholesterol levels. Serum lipoprotein cholesterol levels were determined by lipoprotein profile analysis. Lipoprotein profiles were analyzed using gel-filtration chromatography on a Superose 6HR (1×30 cm) column equipped with on-line detection of total cholesterol as described by Kieft et al (Kieft, K. A.; Bocan, T. M.; Krause, B. R. Rapid on-line determination of cholesterol distribution among plasma lipoproteins after high-performance gel filtration chromatography. J. Lipid Res. 1991, 32, 859-866.). The total cholesterol content of each lipoprotein was calculated by multiplying the independent values determined for serum total cholesterol by the percent area of each lipoprotein in the profile. The percent body weight gain and the ratio of liver to body weight is also determined. Selected data are shown as absolute values or as a percent change of the pretreatment values in Tables 8 and 9.
Select compounds (214c, 210c, and 210g) were further evaluated in the Zucker rat by performing a full dose response and measuring additional serum variables including markers for diabetes (Tables 10-12).

The subject of data set [1] is Lipid Synthesis in Primary Rat Hepatocytes. In words: Inhibition of lipid synthesis ([1-14C]-acetate incorporation) in primary cultures of rat hepatocytes. The class given is cell-based, rat (Sprague-Dawley). Conditions: Hepatocyte, 4 h, 4 h incubation with [1-14C]-acetate, 0-300 μM compound, Table 7, ranges where confidence of estimate is insufficient to assign a value. On the procedure: Compounds were tested for inhibition of lipid synthesis in primary cultures of rat hepatocytes. […] Sprague-Dawley rats were anesthetized with intraperitoneal injection of sodium pentobarbital (80 mg/kg). Rat hepatocytes were isolated essentially as described by the method of Seglen (Seglen, P. O. Hepatocyte suspensions and cultures as tools in experimental carcinogenesis. J. Toxicol. Environ. Health 1979, 5, 551-560). Hepatocytes were suspended in Dulbecco's Modified Eagles Medium containing 25 mM D-glucose, 14 mM HEPES, 5 mM L-glutamine, 5 mM leucine, 5 mM alanine, 10 mM lactate, 1 mM pyruvate, 0.2% bovine serum albumin, 17.4 mM non-essential amino acids, 20% fetal bovine serum, 100 nM insulin and 20 μg/mL gentamycin) and plated at a density of 1.5×10^5 cells/cm^2 on collagen-coated 96-well plates. Four hours after plating, media was replaced with the same media without serum. […] Lipid synthesis incubation conditions were initially assessed to ensure the linearity of [1-^14C]-acetate incorporation into hepatocyte lipids for up to 4 hours. Hepatocyte lipid synthesis inhibitory activity was assessed during incubations in the presence of 0.25 μCi [1-^14C]-acetate/well (final radiospecific activity in assay is 1 Ci/mol) and 0, 1, 3, 10, 30, 100 or 300 μM of compounds for 4 hours. […] Lipid radioactivity was assessed by scintillation spectroscopy in a Packard TopCount NXT.

Setting [2] is: 168 h, 1 wk, Table 9, read-out: HDL-Cholesterol, Percent Change from Pre-Treatment, 1 wk.

The structures appear in SMILES notation. Where two headings read alike, the source gives them in different places.

As to `CC(C)(CCCCCC(=O)CCCCCC(C)(C)C(=O)O)C(=O)O`, in the data set with obese female Zucker rats (setting [2]), the change in vivo at 100 mg/kg is 70%.

In the case of `O=C(CCCCC1(C(=O)O)CCCC1)CCCCC1(C(=O)O)CCCC1` [Compound 107g, 1-[9-(1-Carboxycyclopentyl)-5-oxononyl]-1-cyclopentanecarboxylic acid], the melting point (usually the temperature of the solid-liquid transition) was in the range of 99 to 103 °C.

On to `O=C(CCCCCC1(C(=O)O)CC1)CCCCCC1(C(=O)O)CC1` [Compound 107l, 1-[11-(1-Carboxycyclopropyl)-6-oxoundecyl]-1-cyclopropanecarboxylic acid], for which the melting point lay in the range of 122 to 123 °C.

As to `O=C(CCCCCC1(C(=O)O)CCCC1)CCCCCC1(C(=O)O)CCCC1` [Compound 107m, 1-[11-(1-Carboxycyclopentyl)-6-oxoundecyl]-1-cyclopentanecarboxylic acid], the melting point lay in the range of 78 to 85 °C.

As for `CC(C)(CCCCCCCC(=O)CCCCCCCC(C)(C)C(=O)O)C(=O)O` [Compound 107n, 10-Oxo-2,2,18,18-tetramethyl-nonadecanedioic acid], the melting point fell in the range of 74 to 77 °C.

Regarding `CC(C)(CCCCCCCC(=O)CCCCCCCC(C)(C)C(=O)O)C(=O)O` [drawing 538], the IC50 (usually the concentration needed to halve the response being measured) in data set [1] is 5 µM.

Consider `CC(C)(CCCCCCCC(=O)CCCCCCCC(C)(C)C(=O)O)C(=O)O` [drawing 559], for which the change in vivo at 100 mg/kg in the data set on obese female Zucker rats (setting [2]) is 44%; in the data set on obese female Zucker rats (168 h, 1 wk, Table 9, read-out: NonHDL-Cholesterol, Percent Change from Pre-Treatment, 1 wk) it was -80%; in the data set on obese female Zucker rats (168 h, 1 wk, Table 9, read-out: TG, Percent Change from Pre-Treatment, 1 wk) it was -85%; in the data set on obese female Zucker rats (336 h, 2 wk, Table 9, read-out: HDL-Cholesterol, Percent Change from Pre-Treatment, 2 wk) it was 86%; with obese female Zucker rats (336 h, 2 wk, Table 9, read-out: NonHDL-Cholesterol, Percent Change from Pre-Treatment, 2 wk), -46%; in the data set with obese female Zucker rats (336 h, 2 wk, Table 9, read-out: TG, Percent Change from Pre-Treatment, 2 wk) it was -63%.

The values above are taken from patent US8642653B2, “Ketone compounds and compositions for cholesterol management and related uses” (Esperion Therapeutics, Inc., priority 2003, dated 2014).
